By melting point is commonly meant the temperature of the solid-liquid transition.

The values that follow come from a melting point compilation (Tetko et al.; mined from patent text by program, amines drawn as free bases though some values may be those of a salt).

`N#CCCNC(=O)c1cccc(-c2cccc3sc(Cc4cccc(C(F)(F)F)c4)cc23)c1` registered a melting point of 137 to 138 °C.
Turning to `CC1(C)NCCc2ccccc2C1c1ccccc1` (centres undefined), the melting point lay in the range of 99 to 100 °C.
Next, `CCCCOc1cc(/C=C/S(=O)(=O)NC(=O)OC(C)(C)C)n(Cc2ccc(Cl)cc2Cl)n1`: 152 to 153 °C; `O=C1CCCc2c1ccc(O)c2CCc1ccccc1`: 185 to 188 °C; `Cn1nc(C2CCN(C#N)CC2)c2ccc(F)cc21`: 133 to 136 °C.
To `CN(C(=O)c1ccccc1)c1cccc(-c2nc(=O)c3ccccc3s2)n1` belongs 234 to 235 °C; to `O=[N+]([O-])c1ccc(NN=C(Cl)c2ccccc2)cc1`, 195 to 196 °C; to `CC(C)(C)c1ccc(-c2cc3ccc(C(=O)O)cc3[nH]2)cc1`, 297 °C.
Next, `CNC(=O)N(O)C(C)C#Cc1cccc(Oc2ccccn2)c1` (centres undefined): 147 to 149 °C.
The compound `O=C(O)CCc1ccc2ccccc2c1Br` gave a melting point of 116 to 119 °C.
`CC(NC(=O)c1cc(Cl)cc(Br)c1NC(=O)c1cc(Br)nn1-c1ncccc1Cl)C1CC1` (centres undefined) had a melting point of 244 to 247 °C.
Turning to `CSc1ccc2c(SCc3ccc(N(CCO)CCO)cc3)ccnc2c1`, the melting point fell in the range of 162 to 165 °C.
Compound `CC(C)(COc1ccc(Cl)cc1)C(=O)C(CC1CCCCC1)n1cncn1` (centres undefined) gave a melting point of 58 to 60 °C.
To `O=C1N(Cc2cncc(F)c2)c2ccccc2C12COc1cc3c(cc12)OCCO3` (centres undefined) belongs 197 to 200 °C; to `Cn1c(=O)n(Cc2cccs2)c(=O)c2cc(C(=O)NCc3ccc4c(c3)OCO4)ccc21`, 224 °C; to `CC(C)(C)OC(=O)N1CCCN(CC2=Nc3cccc4c(=O)[nH]nc(c34)N2)CC1`, 219 to 221 °C.
Compound `Cc1cc2c(cc1C1=NNC(=O)CC1C)N(C)C(=O)C(C)O2` (centres undefined) registered a melting point of 190 to 192 °C.
The compound `Cc1c(-c2ccccc2)oc2c(S(=O)(=O)N(C)CCO)cccc2c1=O` yielded a melting point of 146 to 147 °C.
To `C[C@]12C=CC(=O)N[C@@H]1CCc1cc(-c3cccc([N+](=O)[O-])c3)ccc12` belongs 205 to 206 °C.
`CCCN1CCC(Cc2ccc3c(c2)c(Cc2ccc(C(=O)NS(=O)(=O)c4ccccc4C)cc2OC)cn3C)C1=O` (centres undefined) displayed a melting point of 112 to 122 °C.
Consider `O=C1N[C@@H](CC2CCCCC2)[C@H]1O`, for which the melting point is 147 to 148 °C.
In turn, `CC(=O)c1cc(N=c2cc(C)n(C)c(N)n2)cc(C(C)=O)c1` gave a melting point of 219 to 220 °C.
Next, `Nc1ncccc1OCc1ccccc1Br`: 99 to 100 °C; `CCCCCCCCc1ccc(C=Nc2ccc(C#N)cc2)cc1`: 32.5 to 32.8 °C.
As for `N#Cc1ccccc1N1CCN(CCC=C2c3ccccc3CCc3ccccc32)CC1`, the melting point was in the range of 112 to 114 °C.
Next, `C=CCOC(=O)c1ccc(C(=O)SCc2ccc3c(c2)C(C)(C)CCC3(C)C)cc1`: 79 to 80 °C.
Compound `CON=C(Cn1ncc(-c2ccc(S(C)(=O)=O)cc2)c(-c2ccc(F)cc2)c1=O)c1ccccc1` registered a melting point of 95 to 99 °C.
`CC(Cc1cccc(O)c1)NCCC(c1ccccc1)c1ccccc1` (centres undefined) gave a melting point of 122 to 124 °C.
Next, `Brc1cc2c(cc1Br)Sc1ccccc1S2`: 160 to 161 °C; `N=C(N)c1ccc(C(=O)N[C@@H](Cc2cc(I)c(O)c(I)c2)C(=O)N2CCC(OCC(=O)O)CC2)cc1`: 220 to 221 °C.
To `O=C1N(N2CCOCC2)c2ccccc2C1(Cc1ccncc1)Cc1ccncc1` belongs 200 to 203 °C; to `NC1(C(F)F)CCCNC1=O` (centres undefined), 149 °C; to `CC(C)CSc1cc(C(=O)O)cc(S(N)(=O)=O)c1Oc1ccccc1`, 193 to 194 °C.
To `CCCCCCOC(=O)CCCC(C)(C)c1cc(O)c(C(C)(C)CCCC(=O)OCCCCCC)cc1O` belongs 77 to 78 °C; to `Cn1cnc(=O)c(-c2cccc(C(F)(F)F)c2)c1`, 155 to 156 °C; to `O=C1C(=O)c2ccccc2C2=C1SCC(COc1cccnc1)O2` (centres undefined), 153 to 155 °C.
Turning to `O=C1c2ccccc2C(=O)N1OS(=O)(=O)c1ccccc1`, the melting point is 186 °C.
Turning to `FC(F)(F)c1ccc2c(Nc3ccncc3)noc2c1`, the melting point was 249 to 250 °C.
To `O=C1C(Br)=C(c2ccccc2)C(=O)N1Nc1ccccc1` belongs 146 to 147 °C.
Consider `c1ccc(C(c2ccccc2)N2CC2)cc1`, for which the melting point was in the range of 56 to 58 °C.
Next, `CC(C)(C)c1cc(CC=Cc2ccccc2)cc(C(C)(C)C)c1O`: 93 °C; `O=C(Nc1nccs1)C(CC1CCCC1)c1ccc([N+](=O)[O-])cc1` (centres undefined): 134 to 136 °C; `O=C(Nc1ccc(S(=O)(=O)c2ccccn2)cc1)C(O)(C(F)(F)F)C(F)(F)F`: 199 to 200 °C.
With `CCCCCCCCCCCCCC(=O)Nc1ccc(Cl)c(NC2=NN(c3c(Cl)cc(Cl)cc3Cl)C(=O)C2SCCc2ccccc2)c1` (centres undefined), the melting point was 161 to 162 °C.
Next, `COC(=O)c1cc(C)sc1Nc1ccc(F)cc1[N+](=O)[O-]`: 149 to 151 °C; `CC(C)c1nn(-c2nc3ccccc3s2)c(-c2ccc(F)cc2)c1Br`: 146 to 147 °C.
To `CCOC(=O)Cc1ccc(C(=O)c2ccccc2)cc1[N+](=O)[O-]` belongs 61 to 62 °C; to `COC1(OCCCCl)C=CC(C(=O)O)=CC1` (centres undefined), 157 to 159 °C.
`COC(=O)c1cc(-c2ccc(C(F)(F)F)cc2)oc1COC(C)=O` had a melting point of 60 to 61 °C.
To `CCCCCC(CC(=O)Nc1cc(C(=O)Nc2ccncc2)ccc1C(C)(C)C)c1c(OC)cccc1OC` (centres undefined) belongs 169 to 172 °C; to `Cc1c(C(=O)Nc2ccc(N3CCN(C4CCOCC4)CC3)c(C#N)c2)cnn1-c1ccc(F)c(F)c1`, 235 °C; to `O=C(Nc1ccc(Cl)cc1)NS(=O)(=O)c1ccc2c(c1)OCCO2`, 191 °C.
The compound `CCCC(=O)Nc1n[nH]c2cc(-c3ccc(OCc4ccccc4)cc3)c(-c3ccc(OCc4ccccc4)cc3)cc12` registered a melting point of 140 °C.
Next, `BrC1=Cc2ccccc2Nc2ccccc21`: 65 to 69 °C; `Cc1ccc(CN2Cc3cncn3CC2=O)cc1`: 105 to 108 °C; `O=C(Nc1ccc(C(=O)N2CCO[C@H]3CCCC[C@@H]32)cc1)c1ccc(Cl)cc1Cl` (relative stereo): 227 to 230 °C.
In turn, `CCOC(=O)C1CCC(Sc2ccc(F)cc2)C(=O)C1` (centres undefined) gave a melting point of 96 to 97 °C.
Next, `C=C1CCc2onc(-c3ccccc3)c2C1=O`: 97 to 99 °C; `C[C@H](Nc1nc(Cl)nc(Cl)n1)c1ccccc1`: 146 to 147 °C; `Sc1c(Br)cc(Br)cc1Br`: 114 to 116 °C.
The compound `Cc1c(C(=O)O)ccc2c1OCO2` came in with a melting point of 180 to 182 °C.
On to `c1csc(-c2cnc(-c3cccs3)o2)c1`, for which the melting point is 64.5 to 66 °C.
Next, `O=C(O)c1c(-c2cnccn2)ssc1=S`: 225 °C; `COc1cc(OC)c2c(=O)[nH]c(-c3ccc(OC)c(-c4ccc(C(=O)N(C)C)cc4Cl)c3)nc2c1`: above 300 °C.
Next, `O=C(C=C1CCCN1)c1ccc(Cl)cc1`: 146 to 147 °C; `OCc1ccc(-c2ncn(-c3ccc(OC(F)(F)F)cc3)n2)cc1`: 112 to 114 °C; `COc1cc(C(O)c2cnc(Cl)nc2Cl)cc(OC)c1OC` (centres undefined): 115 to 118 °C.
`CCCc1c(C(=O)C2CCCC2)c2ccc(C(N)=O)cc2n1Cc1ccccc1Cl` displayed a melting point of 202 °C.
Next, `COC(=O)C(Sc1ccc(Cl)cc1)c1ccc(Oc2ccccc2)cc1` (centres undefined): 66 to 67.5 °C; `CCCCCCCNC(=O)Nc1ccccc1C(=O)NC1CCCN(C(c2ccccc2)c2ccccc2)C1` (centres undefined): 112 °C.
To `Cc1[nH]c2ccc(OS(=O)(=O)c3c(F)cccc3F)cc2c1C1CCN(C)CC1` belongs 138 °C.
Compound `O=C(Nc1ccc(Cl)cc1)NC1N=C(c2ccccc2)c2ccccc2N(CC(=O)OCc2ccccc2)C1=O` (centres undefined) displayed a melting point of 220 to 222 °C.
To `CC=Cc1nc2ccc(C)cc2c(=O)[nH]1` belongs 232 to 233 °C; to `O=C1CCCN1c1cnc2cnc(-c3ccc(O)cc3)nc2c1`, above 268 °C.
In the case of `c1ccc(C(OC2CCN(CCCCNc3ccc4nncn4n3)CC2)c2ccccc2)cc1`, the melting point lay within 145 to 146 °C.
`Cc1ccccc1OCC(O)CN1CCC2(CC1)CSC1=C(O2)c2ccccc2C(=O)C1=O` (centres undefined) returned a melting point of 191 to 193 °C.
As to `CC12CCC3C(CC(O)C4(O)CC(O)CCC34C)C1CCC2=O` (centres undefined), the melting point lay within 304 to 306 °C.
`CCOC(=O)C1=C(C)NC(C=O)=C(C(=O)OCC)C1c1cc([N+](=O)[O-])ccc1Cl` (centres undefined) yielded a melting point of 172 to 173 °C.
To `Cc1ccc2c(Cl)nccc2c1[N+](=O)[O-]` belongs 171 to 173 °C; to `COc1c(C(=O)O)nnn1Cc1ccccc1Cl`, 130 to 135 °C; to `c1ccc(Cc2ccccc2C2CCN(CCCOc3ccccc3)CC2)cc1`, 139 to 140 °C.
To `O=C1NCCC[C@@H]1NS(=O)(=O)c1cccc(F)c1` belongs 159 to 160 °C.
For the compound `COC(=O)c1ccc(O)c(C(=O)CC(=O)c2cccnc2)c1`, the melting point is 200 to 202 °C.
Next, `Nc1ccc(Nc2ccccc2[N+](=O)[O-])cc1`: 110 to 112 °C.
The compound `C[C@@H](NC(=O)c1ccc(-c2ccc(Cl)cc2)cc1)[C@](O)(Cn1cncn1)c1ccc(F)cc1F` registered a melting point of 173 to 174 °C.
As to `COc1ccc2c(C(F)(F)F)c(CC(=O)O)c(=O)oc2c1`, the melting point lay in the range of 198 to 200 °C.
To `CC1(C)OC(=O)C(Sc2nccs2)=C1c1ccc(S(C)(=O)=O)cc1` belongs 174 to 176 °C; to `O=[N+]([O-])c1cccc2cc(-c3nccs3)[nH]c12`, 130 to 131 °C; to `CC(C)(Oc1ccc(CCCc2cc(-c3ccccc3)no2)cc1)C(=O)O`, 66 to 70 °C.
